These are literature values, as cited in patent US20220151901A1, “A METHOD OF COLORING KERATINOUS MATERIAL COMPRISING THE USE OF AN ORGANOSILICON COMPOUND, A COLORING COMPOUND, AND A MIXTURE OF SILICONES” (Henkel AG & Co. KGaA, priority 2019, published 2022).

The conditions of the data set: 25° C.

For the compound `CCN(Cc1cccc(S(=O)(=O)[O-])c1)c1ccc(C(=C2C=CC(=[N+](CC)Cc3cccc(S(=O)(=O)[O-])c3)C=C2)c2ccccc2S(=O)(=O)[O-])cc1.[Na+].[Na+]` [Acid Blue 9], the solubility in water entry is “more than 20 % by weight”.

On to `O=S(=O)([O-])c1ccc(N=Nc2c(O)ccc3ccccc23)cc1.[Na+]` [Acid Orange 7, sodium salt of 4-[(2-hydroxy-1-naphthyl)azo]benzene sulphonate], for which the solubility in water result is “more than 7 g/L”.

For `Nc1cc(S(=O)(=O)[O-])cc2cc(S(=O)(=O)[O-])c(N=Nc3ccccc3)c(O)c12.[Na+].[Na+]` [Acid Red 33, disodium salt of 5-amino-4-hydroxy-3-(phenylazo)-naphthalene-2,7-disulphonate], the solubility in water was 2500 µg/mL.

Regarding `O=C([O-])c1c(Cl)c(Cl)c(Cl)c(Cl)c1-c1c2c(Br)cc(=O)c(Br)c-2oc2c(Br)c(O)cc(Br)c12.O=C([O-])c1c(Cl)c(Cl)c(Cl)c(Cl)c1-c1c2c(Br)cc(=O)c(Br)c-2oc2c(Br)c(O)cc(Br)c12.[Na+].[Na+]` [Acid Red 92, disodium salt of 3,4,5,6-tetrachloro-2-(1,4,5,8-tetrabromo-6-hydroxy-3-oxoxanthen-9-yl)benzoic acid], the solubility in water result is given as “greater than 10 g/L”.

`O=C([O-])C1=NN(c2ccc(S(=O)(=O)[O-])cc2)C(=O)C1N=Nc1ccc(S(=O)(=O)[O-])cc1.[Na+].[Na+].[Na+]` (centres unmarked) [Acid Yellow 23, trisodium salt of 4,5-dihydro-5-oxo-1-(4-sulfophenyl)-4-((4-sulfophenyl)azo)-1H-pyrazole-3-carboxylic acid]: the “solubility in water (in words)” value was “highly soluble”.
